Laboratory results as given in PubChem BioAssay (NCI).
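Step 1: Grow cells in 96-well plates. Step 2: Expose to compound for 48 hours at 5 concentrations. Step 3: Interpolate endpoints linearly; if unreached, use highest concentration. Here, GI50 denotes the concentration required for 50% inhibition of growth. TGI is the concentration that stops growth completely.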

Assays:
Experiment in all cases: growth of human tumour cells (NCI), 48 h
RXF 393 renal = system: RXF 393 renal
NCI/ADR-RES ovarian = system: NCI/ADR-RES ovarian
OVCAR-3 ovarian = system: OVCAR-3 ovarian
HOP-62 NSCLC = system: HOP-62 NSCLC
EKVX NSCLC = system: EKVX NSCLC
CCRF-CEM leukemia = system: CCRF-CEM leukemia
HCT-116 colon = system: HCT-116 colon
SN12C renal = system: SN12C renal
HT29 colon = system: HT29 colon
HS 578T breast = system: HS 578T breast

SMILES	TGI (RXF 393 renal)	TGI (NCI/ADR-RES ovarian)	TGI (OVCAR-3 ovarian)	TGI (HOP-62 NSCLC)	TGI (EKVX NSCLC)	TGI (CCRF-CEM leukemia)	TGI (HCT-116 colon)	TGI (SN12C renal)	TGI (HT29 colon)	TGI (HS 578T breast)	GI50 (NCI/ADR-RES ovarian)	GI50 (OVCAR-3 ovarian)	GI50 (HOP-62 NSCLC)	GI50 (EKVX NSCLC)	GI50 (SN12C renal)	GI50 (HT29 colon)
C(=C/c1nc2ccccc2o1)/c1ccc2c(c1)OCO2	41.9 µM	39.5 µM	29.1 µM	45.7 µM	> 100 µM	> 100 µM	33.3 µM	> 100 µM	> 81.8 µM							
CN(C)/C=C/C=C(/C=N/S(=O)(=O)C(F)(F)F)C1C=CN(S(=O)(=O)C(F)(F)F)C=C1		96.1 µM	98 µM	> 100 µM	87.2 µM	79.9 µM	87.2 µM	> 100 µM	75.2 µM	> 100 µM						
CC1C2(C)OCC(C#N)(C(=N)O2)C1(C#N)C#N (stereo not given)	65.7 µM	> 100 µM	28.4 µM		52.7 µM	> 100 µM	42.1 µM	29.1 µM	35.3 µM	74.4 µM						
COC(=O)C(NC(=O)OC(C)(C)C)P(=O)(OC)OC (stereo not given)	> 100 µM	> 100 µM	> 100 µM	> 100 µM	> 100 µM		> 100 µM	> 100 µM	> 100 µM	> 100 µM						
COC(=O)C1c2cc3c(c(O)c2C(O)CC1(C)O)C(=O)c1c(O)cc2c(c1C3=O)OC1OC2(C)C(O)C(N(C)C)C1O (stereo not given)	> 100 µM	3.05 µM	> 100 µM	> 100 µM		> 100 µM				7.21 µM						
CCn1c2ccccc2c2cc(Nc3cc(C)[nH]c(=O)n3)ccc21	> 100 µM	> 100 µM	> 100 µM	> 100 µM	> 100 µM		> 100 µM	> 100 µM	> 100 µM							
CC[C@@]1(O)C(=O)OCc2c1cc1n(c2=O)Cc2c-1nc1ccccc1c2/C=N\NC(=O)C(N)Cc1c[nH]c2ccccc12 (stereo not given in full)	1.21 µM	> 35.6 µM	> 54.9 µM		> 100 µM	3.44 µM	15.5 µM	> 95.3 µM	> 100 µM	> 100 µM						
CC1OC(=O)C(C(C)C)NC(=O)C(C(C)C)OC(=O)C(C(C)C)NC(=O)C(C)OC(=O)C(C(C)C)NC(=O)C(C(C)C)OC(=O)C(C(C)C)NC(=O)C(C)OC(=O)C(C(C)C)NC(=O)C(C(C)C)OC(=O)C(C(C)C)NC1=O (stereo not given)	0.328 µM	0.117 µM	0.0148 µM	0.0144 µM		4.2 µM	2.91 µM	0.233 µM	3.4 µM		0.0129 µM	< 0.0001 µM	< 0.0001 µM	< 0.0001 µM	0.00019 µM	< 0.0001 µM
CC(C)(C)[Si](C)(C)OC[C@H](/C=C\CCCC(=O)O)NC1(c2ccccc2)c2ccccc2-c2ccccc21	25 µM	61 µM	36.1 µM	42.3 µM	40.9 µM		44.8 µM	31.6 µM	47.6 µM	50.5 µM						
CC(C)C(NC(=O)C(Cc1ccccc1)NC(=O)[C@H]1CCC[C@H]1NC(=O)C(Cc1ccc(OC(C)(C)C)cc1)NC(=O)OC(C)(C)C)C(N)=O (stereo not given in full)	> 100 µM	> 100 µM	69.3 µM	32.5 µM	> 100 µM	39.4 µM	32.1 µM	35.2 µM	53.3 µM							
COC1CC(OC2C(C)OC(OC3C(C)OC(OC4C(C)OC(O[C@H]5CC[C@@]6(C)C(=CC[C@]7(O)[C@@H]6C[C@@H](O)[C@@]6(C)[C@]7(O)CC[C@@]6(O)C(C)=O)C5)CC4OC)CC3OC)CC2OC)OC(C)C1O (stereo not given in full)		> 12.5 µM	> 12.5 µM	> 12.5 µM	> 12.5 µM	> 12.5 µM	> 12.5 µM	> 12.5 µM	> 12.5 µM	> 12.5 µM						
CC(C)c1ccc(/C=C2\CSCC3=C2N=C2SCC(=O)N2C3c2ccc(C(C)C)cc2)cc1 (stereo not given)		> 100 µM	> 100 µM	> 100 µM	> 100 µM	> 100 µM	> 100 µM	> 100 µM	> 100 µM	> 100 µM						
N#Cc1nc(-c2cccc(-c3nc(C#N)c(N)o3)n2)oc1N		> 100 µM	> 100 µM	> 100 µM	> 100 µM	46.9 µM	> 100 µM	> 100 µM	> 100 µM	> 100 µM						
CC(=O)OCC1OC(n2c(-c3ccccc3)c(N=Nc3ccc(C)cc3)c(C)c(C#N)c2=S)C(OC(C)=O)C(OC(C)=O)C1OC(C)=O (stereo not given)	50.7 µM	39.9 µM	64.7 µM	50.1 µM		> 100 µM	15.4 µM	28.9 µM	> 100 µM							
CCOC(=O)C(C(=O)COC(C)(C)C)[C@@H]1C=C[C@H](OC(C)=O)C1 (stereo not given in full)		> 100 µM	> 100 µM	> 100 µM	> 100 µM	> 100 µM	> 100 µM	> 100 µM	> 100 µM	> 100 µM						
CN1CCC2(CC1)C(=NC1CCCCC1)NC(=O)N2c1ccccc1	> 100 µM	> 100 µM		> 100 µM	> 100 µM	> 100 µM	> 100 µM	> 100 µM	> 100 µM	> 100 µM						
C(#Cc1ccccc1)SC1=C(c2ccccc2)S/C(=C(\SC#Cc2ccccc2)c2ccccc2)S1		> 100 µM	> 100 µM	> 100 µM	> 100 µM	> 100 µM	> 100 µM	> 100 µM	> 100 µM	> 100 µM						
COc1ccc2c(c1)CCC/C2=N\NS(=O)(=O)c1c(C)cc(C)cc1C		59.9 µM	> 100 µM	> 100 µM	98.5 µM	63.7 µM	35.6 µM	45.5 µM	43.5 µM	61.8 µM						
Cc1ccc(/C=C2/N=C(N/N=C\c3ccccc3)NC2=O)cc1	66 µM	> 100 µM	> 100 µM	> 100 µM	> 100 µM		> 100 µM	> 100 µM	> 100 µM	85.3 µM						
NS(=O)(=O)c1ccc(N=Nc2ccc(O)c(C(=O)O)c2)cc1	> 100 µM	> 100 µM	> 100 µM	> 100 µM	> 100 µM		> 100 µM	> 100 µM	> 100 µM	> 100 µM						
